We go through one molecule from patent publication US20160017286A1, “IKAROS INHIBITION TO AUGMENT ADOPTIVE T CELL TRANSFER” (THE TRUSTEES OF THE UNIVERSITY OF PENNSYLVANIA, priority 2013, published 2016).

Assay [1] deals with human CD8 T cells bearing anti-mesothelin CAR. As to the kind of experiment: IL2 and IFNγ production in human anti-mesothelin CAR T cells stimulated with mesothelin-coated beads. The assay is classed as cell-based. As to conditions: lenalidomide 10 uM vs absence.
Assay [2] relates to human CD4 and CD8 T cells. Briefly: IL2 and IFNγ production (flow cytometry) in human T cells stimulated with anti-CD3/anti-CD28 beads. The format is cell-based. To be noted: lenalidomide 10 uM vs absence.

As to `Nc1cccc2c1CN(C1CCC(=O)NC1=O)C2=O` (stereo not drawn) [lenalidomide], in assay [1], the “IFNγ production in human CD8 T cells bearing anti-mesothelin CAR” value was “increased both IL2 and IFNγ production”; the “IL2 production in human CD8 T cells bearing anti-mesothelin CAR” value is “increased both IL2 and IFNγ production”. Besides, in assay [1] (listed as Lenalidomide), the “IFNγ production in human CD8 T cells bearing anti-mesothelin CAR” value is “augments IL2 and IFN levels”; the “IL2 production in human CD8 T cells bearing anti-mesothelin CAR” value was “augments IL2 and IFN levels”. For the same molecule, in assay [2], the “IFNγ production in human CD4+ T cells” value was “increased IL2 and IFNγ production”; the “IFNγ production in human CD8+ T cells” value was “increased IL2 and IFNγ production”; the “IL2 production in human CD4+ T cells” value was “increased IL2 and IFNγ production”; the “IL2 production in human CD8+ T cells” value was “increased IL2 and IFNγ production”. For the same molecule, in assay [2] (listed as Lenalidomide), the “IFNγ production in human CD4+ T cells” value is “augments IL2 and IFN levels”; the “IFNγ production in human CD8+ T cells” value was “augments IL2 and IFN levels”; the “IL2 production in human CD4+ T cells” value was “augments IL2 and IFN levels”; the “IL2 production in human CD8+ T cells” value is “augments IL2 and IFN levels”.
